Experimental data: patent US7002022B2, “N-Aryl (thio) anthranilic acid amide derivatives, their preparation and their use as VEGF” (Novartis AG, priority 1998, dated 2006)

System: not given
Assay: not given
Details: not given

Compound	melting point [°C]
CN(C)c1cccc(NC(=O)c2ccccc2NCc2ccncc2)c1 [Example 20, 2-[(4-Pyridyl)methyl]amino-N-[3-(dimethylamino)phenyl]benzamide]	152 to 154
NC(=O)Nc1cccc(NC(=O)c2ccccc2NCc2ccncc2)c1 [Example 19, 2-[(4-Pyridyl)methyl]amino-N-[3-[(aminocarbonyl)amino]phenyl]benzamide]	200 to 202
O=C(Nc1cc(F)cc(C(F)(F)F)c1)c1ccccc1NCc1ccncc1 [Example 10, 2-[(4-Pyridyl)methyl]amino-N-[3-fluoro-5-(trifluoromethyl)phenyl]benzamide]	196 to 197
O=C(Nc1cc(Cl)cc(C(F)(F)F)c1)c1ccccc1NCc1ccncc1 [Example 8, 2-[(4-Pyridyl)methyl]amino-N-[3-chloro-5-(trifluoromethyl)phenyl]benzamide]	190 to 194
O=C(Nc1cccc(C(F)(F)F)c1)c1ccccc1NCc1ccnc2ccccc12 [Example 35, 2-[(4-Quinolinyl)methyl]amino-N-[3-(trifluoromethyl)phenyl]benzamide]	191 to 193
NC(=O)c1cccc(NC(=O)c2ccccc2NCc2ccncc2)c1 [Example 32, 2-[(4-Pyridyl)methyl]amino-N-[3-(aminocarbonyl)phenyl]benzamide]	195 to 203
CN(C(=O)c1ccccc1NCc1ccncc1)c1cccc(C(F)(F)F)c1 [Example 24, 2-[(4-Pyridyl)methyl]amino-N-methyl-N-[3-(trifluoromethyl)phenyl]benzamide]	127 to 128
O=C(Nc1cccc(C(F)(F)F)c1)c1ccccc1NCc1cccnc1 [Example 34, 2-[(3-Pyridyl)methyl]amino-N-[3-(trifluoromethyl)phenyl]benzamide]	140 to 142
O=C(Nc1ccc(Cl)cc1)c1ccccc1NCc1ncc[nH]1 [Example 40, 2-[(2-Imidazolyl)methyl]amino-N-(4chlorophenyl)benzamide]	181 to 184
COc1cc(NC(=O)c2ccccc2NCc2ccncc2)cc(C(F)(F)F)c1 [Example 13, 2-[(4-Pyridyl)methyl]amino-N-[3-methoxy-5-(trifluoromethyl)phenyl]benzamide]	134 to 136
O=C(Nc1cccc(Cl)c1)c1ccccc1NCc1ccncc1 [Example 28, 2-[(4-Pyridyl)methyl]amino-N-(3-chlorophenyl)benzamide]	131 to 133
O=C(Nc1ccccc1)c1ccccc1NCc1ccncc1 [Example 3, 2-[(4-Pyridyl)methyl]amino-N-phenylbenzamide]	160 to 161
O=C(Nc1ccc(Cl)cc1)c1ccccc1NCc1ccnc2ccccc12 [Example 39, 2-[(4-Quinolinyl)methyl]amino-N-(4chlorophenyl)benzamide]	178 to 209
O=C(Nc1cccc(C(F)(F)F)c1)c1cc(F)c(F)cc1NCc1ccncc1 [Example 23, 4,5-Difluoro-2-[(4-pyridyl)methyl]amino-N-[3-(trifluoromethyl)phenyl]benzamide]	175 to 178
Cc1ccc(NC(=O)c2c(C)cccc2NCc2ccncc2)cc1 [Example 33, 2-[(4-Pyridyl)methyl]amino-N-(4-methylphenyl)-6-methylbenzamide]	162 to 163
CC(C)(C)c1ccc(NC(=O)c2ccccc2NCc2ccncc2)cc1 [Example 27, 2-[(4-Pyridyl)methyl]amino-N-[4-(1,1-dimethylethyl)phenyl]benzamide]	168 to 170
O=C(Nc1ccc(F)c(C(F)(F)F)c1)c1ccccc1NCc1ccncc1 [Example 9, 2-[(4-Pyridyl)methyl]amino-N-[4-fluoro-3-(trifluoromethyl)phenyl]benzamide]	183 to 185
O=C(Nc1ccc(Cl)c(C(F)(F)F)c1)c1ccccc1NCc1ccncc1 [Example 7, 2-[(4-Pyridyl)methyl]amino-N-[4-chloro-3-(trifluoromethyl)phenyl]benzamide]	162 to 172
COc1ccc(NCc2ccncc2)c(C(=O)Nc2cccc(C(F)(F)F)c2)c1 [Example 21, 5-Methoxy-2-[(4-pyridyl)methyl]amino-N-[3-(trifluoromethyl)phenyl]benzamide]	175 to 178
Cc1cccc(NC(=O)c2ccccc2NCc2ccncc2)c1 [Example 30, 2-[(4-Pyridyl)methyl]amino-N-(3-methylphenyl)benzamide]	139 to 140
CC(C)(C)c1cccc(NC(=O)c2ccccc2NCc2ccncc2)c1 [Example 15, 2-[(4-Pyridyl)methyl]amino-N-[3-(1,1-dimethylethyl)phenyl]benzamide]	144 to 147
O=C(Nc1cccc(Br)c1)c1ccccc1NCc1ccncc1 [Example 29, 2-[(4-Pyridyl)methyl]amino-N-(3-bromophenyl)benzamide]	156 to 159
N#Cc1cccc(NC(=O)c2ccccc2NCc2ccncc2)c1 [Example 16, 2-[(4-Pyridyl)methyl]amino-N-(3-cyanophenyl)benzamide]	157 to 160
CC(=O)Nc1cccc(NC(=O)c2ccccc2NCc2ccncc2)c1 [Example 18, 2-[(4-Pyridyl)methyl]amino-N-(3-acetylaminophenyl)benzamide]	157 to 158
O=C(Nc1cccc(C(F)(F)F)c1)c1ccccc1NCc1cccc2ncccc12 [Example 36, 2-[(5-Quinolinyl)methyl]amino-N-[3-(trifluoromethyl)phenyl]benzamide]	176 to 178

Second part, the compound after the results:

melting point [°C]	Compound
143	Cc1ccc(NC(=O)c2ccccc2NCc2ccncc2)cc1Cl [Example 69, 2-[(4-pyridyl)methyl]amino-N-(3-chloro-4-methylphenyl)benzamide]
206 to 207	O=C(Nc1ccc(Cl)cc1)c1cc(Cl)ccc1NCc1ccncc1 [Example 59, 5-chloro-2-[(4-pyridyl)methyl]amino-N-(4-chlorophenyl)benzamide]
186	O=C(Nc1ccc(Cl)cc1)c1ccc(Cl)cc1NCc1ccncc1 [Example 55, 4-chloro-2-[(4-pyridyl)methyl]amino-N-(4-chlorophenyl)benzamide]
190	Cc1cccc(NCc2ccncc2)c1C(=O)Nc1ccc(Cl)cc1 [Example 47, 6-methyl-2-[(4-pyridyl)methyl]amino-N-(4-chlorophenyl)benzamide]
102 to 103	O=C(Nc1cccc(C(F)(F)F)c1)c1ccccc1NCCc1cccnc1 [Example 42, 2-[2-(3-Pyridyl)ethyl]amino-N-[3-(trifluoromethyl)phenyl]benzamide]
127	Cc1ccc(NCc2ccncc2)c(C(=O)Nc2ccc(Cl)cc2)c1 [Example 56, 5-methyl-2-[(4-pyridyl)methyl]amino-N-(4-chlorophenyl)benzamide]
79	CC(C)NC(=O)c1ccc(NC(=O)c2ccccc2NCc2ccncc2)cc1 [Example 68, 2-[(4-pyridyl)methyl]amino-N-[4-(isopropylcarbamoyl)phenyl]benzamide]
143	Cc1ccccc1NC(=O)c1ccccc1NCc1ccncc1 [Example 70, 2-[(4-pyridyl)methyl]amino-N-(2-methylphenyl)benzamide]
152 to 154	COc1cc(NC(=O)c2ccccc2NCc2ccncc2)cc2ccccc12 [Example 64, 2-[(4-pyridyl)methyl]amino-N-(4-methoxy-2-naphthyl)benzamide]
70	CC(C)OC(=O)c1ccc(NC(=O)c2ccccc2NCc2ccncc2)cc1 [Example 66, 2-[(4-pyridyl)methyl]amino-N-[4-(isopropoxycarbonyl)phenyl]benzamide]
235	O=C(Nc1ccc2cccc(O)c2c1)c1ccccc1NCc1ccncc1 [Example 54, 2-[(4-pyridyl)methyl]amino-N-(8-hydroxy-2-naphthyl)benzamide]
183 to 185	O=C(Nc1ccc(Cl)cc1)c1c(Cl)cccc1NCc1ccncc1 [Example 48, 6-chloro-2-[(4-pyridyl)methyl]amino-N-(4-chlorophenyl)benzamide]
130 to 132	O=C(Nc1cc2ccccc2cc1Br)c1ccccc1NCc1ccncc1 [Example 65, 2-[(4-pyridyl)methyl]amino-N-(3-bromo-2-naphthyl)benzamide]

Molecular target: T1, Flt-1 VEGF-receptor tyrosine kinase (Homo sapiens, UniProt P17948)
T1 construct: 10 ng of the kinase domain of Flt-1
T1 sequence (P17948 827-1158 limits assumed): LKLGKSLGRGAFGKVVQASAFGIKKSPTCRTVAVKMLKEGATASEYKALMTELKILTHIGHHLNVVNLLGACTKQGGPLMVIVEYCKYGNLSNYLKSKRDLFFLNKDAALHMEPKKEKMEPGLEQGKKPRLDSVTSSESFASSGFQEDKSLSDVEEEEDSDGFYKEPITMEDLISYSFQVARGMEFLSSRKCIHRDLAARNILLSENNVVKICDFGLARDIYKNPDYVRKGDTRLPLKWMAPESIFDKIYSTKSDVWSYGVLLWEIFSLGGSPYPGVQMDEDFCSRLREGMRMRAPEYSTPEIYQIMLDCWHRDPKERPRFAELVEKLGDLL
Assay: Test for activity against Flt-1 VEGF-receptor tyrosine kinase
Format: biochemical
Details: kinase domain of Flt-1, poly(Glu,Tyr) 4:1, 8 μM [33P]-ATP, 10 minutes at room temperature
Protocol: Test for activity against VEGF-receptor tyrosine kinase. The test is conducted using Flt-1 VEGF-receptor tyrosine kinase. […] The reaction is then terminated by the addition of 10 μl 0.25 M ethylenediaminetetraacetate (EDTA) pH 7. Using a multichannel dispenser (LAB SYSTEMS, USA), an aliquot of 20 μl is applied to a PVDF (=polyvinyl difluoride) Immobilon P membrane (Millipore, USA), through a Millipore microtiter filter manifold and connected to a vacuum. Following complete elimination of the liquid, the membrane is washed 4 times successively in a bath containing 0.5% phosphoric acid (H3PO4) and once with ethanol, incubated for 10 minutes each time while shaking, then mounted in a Hewlett Packard TopCount Manifold and the radioactivity measured after the addition of 10 μl Microscint® (β-scintillation counter liquid).
The test is conducted using Flt-1 VEGF-receptor tyrosine kinase, as described hereinabove.

IC50 [µM]	Compound
0.56	O=C(Nc1ccc(Cl)c(C(F)(F)F)c1)c1ccccc1NCc1ccncc1 [Example 7, 2-[(4-Pyridyl)methyl]amino-N-[4-chloro-3-(trifluoromethyl)phenyl]benzamide]
0.26	Cc1ccc(NC(=O)c2ccccc2NCc2ccncc2)cc1 [Example 5, 2-[(4-Pyridyl)methyl]amino-N-(4-methylphenyl)benzamide]
